This is an account of results in patent US8026257B2 (Bristol-Myers Squibb Company, priority 2007, dated 2011).

For test [1] the following is noted: background statement, literature reports; cited from earlier work.
Another test addresses hSERT (Homo sapiens, UniProt P31645). Kind of test: SERT radioligand binding assay ([125I]RTI-55, HEK-hSERT membranes). The conditions noted are these: HEK-293 hSERT membranes, 260 pM [125I]RTI-55, 1 hour at room temperature; read-out: SERT IC50. The procedure, abridged: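 IC50 values derive from four-parameter fits of triplicate percent-inhibition curves, with DMSO as 0% and fluoxetine as 100%. Binding used [125I]RTI-55 at its Kd (520 pM 2× solution) and HEK-hSERT membranes (15 ug/ml 2×) in Tris/NaCl/KCl, pH 7.5, 1 hour, room temperature. Filter-bound radioactivity was counted.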

The target of a further test is T1, NK-1 (Homo sapiens, UniProt P25103).
T1 construct: 30 ul/well of a 2×U373 membrane preparation
T1 sequence (P25103 whole entry): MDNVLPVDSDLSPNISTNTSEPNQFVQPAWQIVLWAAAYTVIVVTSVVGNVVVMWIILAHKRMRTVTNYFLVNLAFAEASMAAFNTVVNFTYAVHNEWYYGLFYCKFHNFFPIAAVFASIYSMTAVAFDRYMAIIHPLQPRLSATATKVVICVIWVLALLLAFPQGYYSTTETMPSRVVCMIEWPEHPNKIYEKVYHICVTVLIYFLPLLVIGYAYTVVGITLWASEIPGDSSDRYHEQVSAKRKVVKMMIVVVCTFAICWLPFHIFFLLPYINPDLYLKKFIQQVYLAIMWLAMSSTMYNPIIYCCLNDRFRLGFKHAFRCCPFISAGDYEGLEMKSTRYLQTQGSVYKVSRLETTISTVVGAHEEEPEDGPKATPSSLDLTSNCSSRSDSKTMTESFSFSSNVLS
Kind of test: NK1 radioligand binding assay ([125I]Substance P, U373 membranes). The conditions noted are these: U373 cell membranes, 200 pM [125I]Substance P, 1 hour at room temperature. The procedure, abridged:
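Displacement of Kd-level [125I]Substance P (400 pM 2× stock) from U373 membranes in pH 7.5 Tris-Cl/MgCl2 buffer with protease inhibitors, 1 h, room temperature. Filtration onto GF/B, then scintillation counting. Percent inhibition, referenced to DMSO and L-733,060 wells, fitted by four-parameter equation to give IC50; triplicate plates.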

hSERT, sequence (P31645 whole entry): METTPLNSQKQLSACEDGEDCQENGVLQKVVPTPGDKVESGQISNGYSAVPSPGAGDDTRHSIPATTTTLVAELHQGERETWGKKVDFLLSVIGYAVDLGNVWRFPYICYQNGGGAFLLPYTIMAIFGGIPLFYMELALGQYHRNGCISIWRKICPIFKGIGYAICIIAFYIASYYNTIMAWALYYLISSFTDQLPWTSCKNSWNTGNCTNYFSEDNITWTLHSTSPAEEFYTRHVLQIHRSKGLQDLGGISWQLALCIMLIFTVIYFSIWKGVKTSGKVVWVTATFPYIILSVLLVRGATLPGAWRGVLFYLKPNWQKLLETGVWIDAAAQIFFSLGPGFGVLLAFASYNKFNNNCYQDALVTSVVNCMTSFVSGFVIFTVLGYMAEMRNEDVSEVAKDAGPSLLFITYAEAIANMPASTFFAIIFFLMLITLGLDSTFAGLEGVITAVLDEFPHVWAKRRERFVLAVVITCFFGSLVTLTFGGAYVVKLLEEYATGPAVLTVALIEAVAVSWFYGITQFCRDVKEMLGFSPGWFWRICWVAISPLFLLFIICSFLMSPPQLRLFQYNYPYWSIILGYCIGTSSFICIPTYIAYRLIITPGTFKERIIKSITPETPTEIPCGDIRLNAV

In the case of `COc1ccc(OC(F)(F)F)cc1CN[C@H]1CCCN[C@H]1c1ccccc1` [CP-122,721], the antidepressant activity result in test [1] is “Robust antidepressant activity”.
Turning to `CN1CCC(CO[C@H](CF)c2cc(Cl)cc3c(Cl)n[nH]c23)(c2ccc(F)cc2)CC1` [Example 109, (S)-3,5-dichloro-7-(2-fluoro-1-((4-(4-fluorophenyl)-1-methylpiperidine-4-yl)methoxy)ethyl)-1H-indazole], the concentration for half-maximal inhibition (IC50) on hSERT and at NK-1 was 0.01 to 100 nM in each case.
Regarding `CN1CCC(COC(CC#N)c2cc(Cl)cc3cn[nH]c23)(c2ccc(F)cc2)CC1` (stereo not shown) [Example 110, 3-(5-chloro-1H-indazol-7-yl)-3-((4-(4-fluorophenyl)-1-methylpiperidine-4-yl)methoxy)propanenitrile], the IC50 at hSERT and on NK-1 was 0.01 to 100 nM in each case.
As for `CN(C)CC(OCC1(c2ccc(F)cc2)CCNCC1)c1cc(Cl)cc2cn[nH]c12` (stereo not shown) [Example 111, 2-(5-chloro-1H-indazol-7-yl)-2-((4-(4-fluorophenyl)piperidine-4-yl)methoxy)-N,N-dimethylethanamine], the IC50 on hSERT is 0.01 to 100 nM; on NK-1, greater than 300 nM.
In the case of `CN(C)CC(OCC1(c2ccc(F)cc2)CCN(C)CC1)c1cc(Cl)cc2cn[nH]c12` (stereo not shown) [Example 112, 2-(5-chloro-1H-indazol-7-yl)-2-((4-(4-fluorophenyl)-1-methylpiperidine-4-yl)methoxy)-N,N-dimethylethanamine], the IC50 on hSERT was 100 to 300 nM; at NK-1 it was greater than 300 nM.
For `CN1CCC(COC(c2cc(Cl)cc3cn[nH]c23)C(F)F)(c2ccc(F)cc2)CC1` (stereo not shown) [Example 113, 5-chloro-7(2,2-difluoro-1-((4-(4-fluorophenyl)-1-methylpiperidin-4-yl)methoxy)ethyl)-1H-indazole], in that order: 0.01 to 100 nM and 0.01 to 100 nM.
For `CCC(OCC1(c2ccc(F)cc2)CCNCC1)c1cc(Cl)cc2cn[nH]c12` (stereo not shown) [Example 114, 5-chloro-7-(1-((4-(4-fluorophenyl)piperidin-4-yl)methoxy)propyl)-1H-indazole], in that order: 0.01 to 100 nM and 0.01 to 100 nM.
As for `CCC(OCC1(c2ccc(F)cc2)CCN(C)CC1)c1cc(Cl)cc2cn[nH]c12` (stereo not shown) [Example 115, 5-chloro-7-(1-((4-(4-fluorophenyl)-1-methylpiperidin-4-yl)methoxy)propyl)-1H-indazole], the IC50 on hSERT and at NK-1 was 0.01 to 100 nM throughout.
`C[C@@H](OCC1(c2ccc(F)cc2)CCN(C)CC1)c1cc(Cl)cc2c(Cl)n(CC(F)(F)F)nc12` [Example 116, (R)-3,5-dichloro-7-(1-((4-(4-fluorophenyl-1-methyl)piperidine-4-yl)methoxy)ethyl)-2-(2,2,2-trifluoroethyl)-2H-indazole]: the IC50 at hSERT and on NK-1 was 0.01 to 100 nM throughout.
For `C[C@@H](OCC1(c2ccccc2)CCN(C)CC1)c1cc(Cl)cc2c(Br)n[nH]c12` [Example 118, (R)-3-bromo-5-chloro-7-(1-((1-methyl-4-phenylpiperidin-4yl)methoxy)ethyl)-1H-indazole], the IC50 on hSERT and on NK-1 was 0.01 to 100 nM in each case.
Regarding `C[C@@H](OCC1(c2ccccc2)CCNCC1)c1cc(Cl)cc2c(Cl)n[nH]c12` [Example 119, (R)-3,5-dichloro-7-(1-((4-phenylpiperidin-4yl)methoxy)ethyl)-1H-indazole], the IC50 at hSERT and at NK-1 was 0.01 to 100 nM in each case.
On to `C[C@@H](OCC1(c2ccccc2)CCN(C)CC1)c1cc(Cl)cc2c(Cl)n[nH]c12` [Example 120, (R)-3,5-dichloro-7-(1-((1-methyl-4-phenylpiperidin-4yl)methoxy)ethyl)-1H-indazole], for which the IC50 on hSERT and on NK-1 was 0.01 to 100 nM in each case.
For the molecule `C[C@H](OCC1(c2ccc(F)cc2)CCNCC1)c1cc(Cl)cc2c(Cl)n[nH]c12` [Example 121, (S)-3,5-dichloro-7-(1-((4-(4-fluorophenyl)piperidin-4-yl)methoxy)ethyl)-1h-indazole], the IC50 on hSERT was 0.01 to 100 nM; on NK-1, greater than 300 nM.
Turning to `C[C@H](OCC1(c2ccc(F)cc2)CCN(C)CC1)c1cc(Cl)cc2c(Cl)n[nH]c12` [Example 122, (S)-3,5-dichloro-7-(1-((4-(4-fluorophenyl)-1-methylpiperidin-4-yl)methoxy)ethyl)-1h-indazole], the IC50 on hSERT was 0.01 to 100 nM; at NK-1 it was greater than 300 nM.
On to `Cc1cn(C)c2c(C(C)OCC3(c4ccc(F)cc4)CCN(C)CC3)cc(C(F)(F)F)cc12` (stereo not shown) [Example 125, 7-(1-((4-(4-fluorophenyl)-1-methylpiperidin-4-yl)methoxy)ethyl)-1,3-dimethyl-5-(trifluoromethyl)-1H-indole], for which the IC50 at hSERT and on NK-1 was 0.01 to 100 nM each time.
Take `CN1CCC(COCc2cc(Br)cc3ncn(CC4CC4)c23)(c2ccccc2)CC1` [Example 132]: the IC50 at hSERT and on NK-1 was 0.01 to 100 nM in each case.
As to `CCn1cnc2c([C@@H](C)OCC3(c4ccccc4)CCN(C)CC3)cc(C(F)(F)F)cc21` [Example 138, (R)-1-ethyl-4-(1-((1-methyl-4-phenylpiperidin-4-yl)methoxy)ethyl)-6-(trifluoromethyl)-1H-benzo[d]imidazole], the IC50 on hSERT and on NK-1 was 0.01 to 100 nM each time.
`C[C@@H](O[C@H]1OCCN(Cc2n[nH]c(=O)[nH]2)[C@H]1c1ccc(F)cc1)c1cc(C(F)(F)F)cc(C(F)(F)F)c1` [MK-869]: the antidepressant activity result in test [1] is listed as “Robust antidepressant activity”.

Usually IC50 stands for the concentration needed to halve the response being measured.
